Here are results for 5 molecules from patent publication US20060020022A1, “Enantioselective separation method” (PHARMACIA & UPJOHN COMPANY LLC, priority 2004, published 2006).

A short description of data set [1]: Photoracemization in ethanol in a 400-mL photoreactor with 450 W UV lamp, e.e. by enantioselective HPLC. Type of data set: physicochemical. The method, then: The mixture was irradiated and aliquots were taken at about time=0, 12, 24, 41, 60, 87, 105, 135, and 162 minutes and analyzed by HPLC.
The natural logarithm of e.e. at each time point was determined for each aliquot.
Half-lives (minutes) and specific half-lives (minutes per gram) were calculated for each concentration.
Using the procedure of Example (E), 10-g of (R)-8-ethyl-6-trifluoromethoxy-2-trifluoromethyl-2H-chromene-3-carboxylic acid was dissolved in 400 mL of ethanol to a concentration of 25-mg/mL, and the mixture was filtered to remove a small amount of insoluble material. The filtrate was placed in the photoreactor and irradiated.
Using the procedure of Example (E), 10-g of (R)-6,8-dimethyl-2-trifluoromethyl-2H-chromene-3-carboxylic acid was dissolved in 400 mL of ethanol to a concentration of 25-mg/mL, and the mixture was filtered to remove a small amount of insoluble material. The filtrate was placed in the photoreactor and irradiated.

The nature of data set [2]: Photoracemization in ethanol in a quartz cuvette under a UV spot lamp, e.e. by enantioselective HPLC. To be noted: for ln (e.e.): 66.7-mg/mL in ethanol; for e.e. by HPLC after irradiation: 50-mg/mL in ethanol, start 21% e.e. of (S), 4 W/cm^2. The data set is classed as physicochemical. The method, then: Using a column with 0.46 cm inner diameter and 250 mm length filled with […]® AD stationary phase, a 10 μL injection volume, by eluting at room temperature with mobile phase (volume proportions) 95%/5% heptane:ethanol with 0.1% trifluoroacetic acid, at room temperature, flow rate at 1 mL/minute isocratic, and detected with a photodiode array detector at 254 nm wavelength, and a run time of 10 minutes.
A 1.0-mg/mL solution of (S)-6-chloro-7-tert-butyl-2-trifluoromethyl-2H-chromene-3-carboxylic acid in ethanol was placed in a quartz cuvette and irradiated with light from a UV spot lamp that produced a 5 mm diameter spot of UV light (320-390 nm wavelength) at 4 W/cm^2 intensity.
The first aliquot was placed in a quartz cuvette and irradiated in 90-second intervals over 25 minutes with light from a UV spot lamp that produced a 5 mm diameter spot of UV light (320-390 nm wavelength) at 4 W/cm^2 intensity to give a solution with 7.4% e.e. by HPLC. The second aliquot was placed in a quartz cuvette and irradiated continuously over 25 minutes with light from the UV spot lamp to give a solution with 12% e.e. by HPLC.
A 40-mg/mL solution of (S)-6-chloro-7-tert-butyl-2-trifluoromethyl-2H-chromene-3-carboxylic acid in ethanol was placed in a quartz cuvette and irradiated with light from a UV spot lamp that produced a 5 mm diameter spot of UV light (320-390 nm wavelength) at 4 W/cm^2 intensity. Aliquots were taken at time=0, 1, 2, 4, 8, 12, and 16 minutes and analyzed by HPLC. The experiment was repeated. A rate constant k for each of the two experiments (k1 and k2) was calculated using the following equation: [formula] wherein t is the time in minutes, C is the concentration of chromene in moles per liter, and ln (e.e.) is the natural logarithm of percent enantiomeric excess. The rate constant k1 was 0.0764/minute and k2 was 0.0787/minute. A half-live τ for each of the two experiments (τ1 and τ2) was calculated using the following equation: [formula] […] A specific half-life of about 30 minutes per gram of enantiomer was calculated.
The procedure of Example (C) was repeated except the concentration of (S)-6-chloro-7-tert-butyl-2-trifluoromethyl-2H-chromene-3-carboxylic acid in ethanol was 66.7-mg/mL. Aliquots were taken at time=0, 1, 2, 4, 8, 12, and 16 minutes and analyzed by HPLC. The natural logarithm of e.e. at each time point was determined for each aliquot. […] The natural logarithm of e.e. data is provided below in Table 1 in the row labeled “ln (e.e.).”

[3] abbreviates: 10-g in 400 mL ethanol, 25-mg/mL, t=5 minutes.

SMILES strings stand for the structures.

Take `Cc1cc(C)c2c(c1)C=C(C(=O)O)[C@H](C(F)(F)F)O2` [(R)-6,8-dimethyl-2-trifluoromethyl-2H-chromene-3-carboxylic acid]: the “ln (e.e.)” value is recorded as “about 4.2” in data set [1] (setting [3]) and “about 1.0” in data set [1] (10-g in 400 mL ethanol, 25-mg/mL, t=105 minutes).
On to `CC(C)(C)c1cc2c(cc1Cl)C=C(C(=O)O)[C@H](C(F)(F)F)O2` [(R)-6-chloro-7-tert-butyl-2-trifluoromethyl-2H-chromene-3-carboxylic acid], for which the “τ” value in data set [1] (4.00 g enantiomer, 10.0 mg/mL in ethanol) was found to be 9.08 min; in data set [1] (8.00 g enantiomer, 20.0 mg/mL in ethanol), 16.38 min; in data set [1] (10.00 g enantiomer, 25.00 mg/mL in ethanol) it was 19.68 min; in data set [1] (13.00 g enantiomer, 32.5 mg/mL in ethanol), 22.57 min; in data set [1] (16.00 g enantiomer, 40.0 mg/mL in ethanol, from Example (E)), 31.65 min; in data set [1] (20.04 g enantiomer, 50.1 mg/mL in ethanol), 31.39 min. Moreover, the rate constant k in data set [1] (16 g in 400 mL ethanol, 40-g/L) turned out to be 0.0109 min⁻¹. In addition, the “ln (e.e.)” value is on record as 4.5 in data set [1] (40-g/L in ethanol, time 0 minutes); 4.3 in data set [1] (40-g/L in ethanol, time 12 minutes); 4.0 in data set [1] (40-g/L in ethanol, time 24 minutes); 3.6 in data set [1] (40-g/L in ethanol, time 41 minutes); 3.2 in data set [1] (40-g/L in ethanol, time 60 minutes); 2.7 in data set [1] (40-g/L in ethanol, time 87 minutes). Further, the “ln (e.e.)” value in data set [1] (40-g/L in ethanol, time 105 minutes) worked out at 2.2; in data set [1] (40-g/L in ethanol, time 135 minutes) it was 1.6; in data set [1] (40-g/L in ethanol, time 162 minutes) it was 1.1.
`CCc1cc(OC(F)(F)F)cc2c1O[C@@H](C(F)(F)F)C(C(=O)O)=C2` [(R)-8-ethyl-6-trifluoromethoxy-2-trifluoromethyl-2H-chromene-3-carboxylic acid]: the “ln (e.e.)” value in data set [1] (setting [3]) is on record as “about 4.3”; in data set [1] (10-g in 400 mL ethanol, 25-mg/mL, t=95 minutes), “about 1.4”.
As to `CC(C)(C)c1cc2c(cc1Cl)C=C(C(=O)O)[C@@H](C(F)(F)F)O2` [(S)-6-chloro-7-tert-butyl-2-trifluoromethyl-2H-chromene-3-carboxylic acid], the “HPLC finding after UV irradiation” value in data set [2] (1.0-mg/mL in ethanol, UV 320-390 nm at 4 W/cm^2, after 30 minutes) was “racemic mixture”. The “rate constant k1” value in data set [2] (40-mg/mL in ethanol, first experiment) stood at 0.0764 min⁻¹. Further, the “rate constant k2” value in data set [2] (40-mg/mL in ethanol, repeated experiment) came to 0.0787 min⁻¹. The “ln (e.e.)” value in data set [2] (time 0 minutes) was found to be 4.4; in data set [2] (time 1 minute), 4.3; in data set [2] (time 2 minutes) it was 4.2; in data set [2] (time 4 minutes), 4.0; in data set [2] (time 8 minutes), 3.8; in data set [2] (time 12 minutes), 3.4. Also, the “ln (e.e.)” value in data set [2] (time 16 minutes) is listed as 3.3.
For `CC(C)(C)c1cc2c(cc1Cl)C=C(C(=O)O)C(C(F)(F)F)O2` [(S)- and (R)-6-chloro-7-tert-butyl-2-trifluoromethyl-2H-chromene-3-carboxylic acid], the “e.e. by HPLC after irradiation” value turned out to be 12% in data set [2] (irradiated continuously over 25 minutes) and 7.4% in data set [2] (irradiated in 90-second intervals over 25 minutes).
